Reference: EPA's CvTdb concentration-time database
Where “and” joins values, the source holds several entries; their conditions need not be identical. Equal values may be shown once.

What was measured:
[1] = test system: rat; test: concentration in blood after dosing; conditions: dosed: halothane, 50000 ppm, dermal, duration: 4 hr, male, F344
[2] = test system: rat; test: concentration in blood after dosing; conditions: dosed: halothane, 50000 ppm, dermal, duration: 4 hr, male, F344; remark: listed apart in the source
[3] = test system: rat; test: concentration in blood after dosing; conditions: dosed: halothane, 50000 ppm, dermal, duration: 4 hr, male, F344; remark: listed apart in the source
[4] = test system: rat; test: concentration in blood after dosing; conditions: 50000 ppm, dermal, duration: 4 hr, male, F344
[5] = test system: rat; test: concentration in blood after dosing; conditions: dosed: isoflurane, 50000 ppm, dermal, duration: 4 hr, male, F344
[6] = test system: rat; test: concentration in blood after dosing; conditions: dosed: isoflurane, 50000 ppm, dermal, duration: 4 hr, male, F344; remark: listed apart in the source
[7] = test system: rat; test: concentration in blood after dosing; conditions: dosed: isoflurane, 50000 ppm, dermal, duration: 4 hr, male, F344; remark: listed apart in the source
[8] = test system: rat; test: concentration in blood after dosing; conditions: dosed: isoflurane, 50000 ppm, dermal, duration: 4 hr, male, F344; remark: listed apart in the source
[9] = test system: rat; test: concentration in blood after dosing; conditions: dosed: isoflurane, 50000 ppm, dermal, duration: 4 hr, male, F344; remark: listed apart in the source
[10] = test system: Rat; test: concentration in adipose after dosing; conditions: 72 h; dosed: Tamoxifen citrate; 300 ug/mL; oral; Female; F344
[11] = test system: Rat; test: concentration in liver after dosing; conditions: 144 h; dosed: Tamoxifen; 300 ug/mL; oral; Female; F344
[12] = test system: Rat; test: concentration in adipose after dosing; conditions: 144 h; dosed: Tamoxifen citrate; 300 ug/mL; oral; Female; F344
[13] = test system: Rat; test: concentration in liver after dosing; conditions: 144 h; dosed: Tamoxifen citrate; 300 ug/mL; oral; Female; F344
[14] = test system: Rat; test: concentration in liver after dosing; conditions: 144 h; dosed: Tamoxifen citrate; 300 ug/mL; oral; Female; F344; remark: listed apart in the source
[15] = test system: Rat; test: concentration in plasma after dosing; conditions: dosed: Tamoxifen citrate, 300 ug/mL, oral, Female, F344
[16] = test system: Rat; test: concentration in liver after dosing; conditions: 144 h; dosed: Tamoxifen; 300 ug/mL; oral; Female; F344; remark: listed apart in the source
[17] = test system: Rat; test: concentration in adipose after dosing; conditions: 72 h; dosed: Tamoxifen citrate; 100 ug/mL; oral; Female; F344
[18] = test system: Rat; test: concentration in liver after dosing; conditions: oral, Female, F344
[19] = test system: Rat; test: concentration in liver after dosing; conditions: 72 h; dosed: Tamoxifen citrate; 100 ug/mL; oral; Female; F344
[20] = test system: Rat; test: concentration in adipose after dosing; conditions: 144 h; dosed: Tamoxifen citrate; 300 ug/mL; oral; Female; F344; remark: listed apart in the source
[21] = test system: Rat; test: concentration in plasma after dosing; conditions: dosed: Tamoxifen, 300 ug/mL, oral, Female, F344
[22] = test system: Rat; test: concentration in liver after dosing; conditions: 144 h; dosed: Tamoxifen; 300 ug/mL; oral; Female; F344; remark: listed apart in the source
[23] = test system: Rat; test: concentration in adipose after dosing; conditions: 72 h; dosed: Tamoxifen; 300 ug/mL; oral; Female; F344
[24] = test system: Rat; test: concentration in liver after dosing; conditions: 144 h; dosed: Tamoxifen; 300 ug/mL; oral; Female; F344; remark: listed apart in the source
[25] = test system: Rat; test: concentration in liver after dosing; conditions: 72 h; dosed: Tamoxifen citrate; 300 ug/mL; oral; Female; F344
[26] = test system: Rat; test: concentration in plasma after dosing; conditions: 300 ug/mL, oral, Female, F344
[27] = test system: Rat; test: concentration in plasma after dosing; conditions: dosed: Tamoxifen, 300 ug/mL, oral, Female, F344; remark: listed apart in the source
[28] = test system: Rat; test: concentration in adipose after dosing; conditions: 144 h; dosed: Tamoxifen; 300 ug/mL; oral; Female; F344
[29] = test system: Rat; test: concentration in plasma after dosing; conditions: dosed: Tamoxifen citrate, 300 ug/mL, oral, Female, F344; remark: listed apart in the source
[30] = test system: Rat; test: concentration in adipose after dosing; conditions: 144 h; dosed: Tamoxifen citrate; 300 ug/mL; oral; Female; F344; remark: listed apart in the source
[31] = test system: Rat; test: concentration in liver after dosing; conditions: 72 h; dosed: Tamoxifen; 300 ug/mL; oral; Female; F344
[32] = test system: Rat; test: concentration in adipose after dosing; conditions: 144 h; dosed: Tamoxifen citrate; 300 ug/mL; oral; Female; F344; remark: listed apart in the source
[33] = test system: Rat; test: concentration in adipose after dosing; conditions: 144 h; dosed: Tamoxifen; 300 ug/mL; oral; Female; F344; remark: listed apart in the source
[34] = test system: Rat; test: concentration in liver after dosing; conditions: 144 h; dosed: Tamoxifen citrate; 100 ug/mL; oral; Female; F344
[35] = test system: Rat; test: concentration in liver after dosing; conditions: 72 h; dosed: Tamoxifen; 300 ug/mL; oral; Female; F344; remark: listed apart in the source
[36] = test system: Rat; test: concentration in adipose after dosing; conditions: 72 h; dosed: Tamoxifen citrate; 100 ug/mL; oral; Female; F344; remark: listed apart in the source
[37] = test system: Rat; test: concentration in adipose after dosing; conditions: 72 h; dosed: Tamoxifen citrate; 300 ug/mL; oral; Female; F344; remark: listed apart in the source
[38] = test system: Rat; test: concentration in adipose after dosing; conditions: 144 h; dosed: Tamoxifen; 300 ug/mL; oral; Female; F344; remark: listed apart in the source
[39] = test system: Rat; test: concentration in liver after dosing; conditions: 144 h; dosed: Tamoxifen citrate; 300 ug/mL; oral; Female; F344; remark: listed apart in the source
[40] = test system: Rat; test: concentration in plasma after dosing; conditions: dosed: Tamoxifen, 300 ug/mL, oral, Female, F344; remark: listed apart in the source
[41] = test system: Rat; test: concentration in liver after dosing; conditions: 72 h; dosed: Tamoxifen citrate; 100 ug/mL; oral; Female; F344; remark: listed apart in the source
[42] = test system: Rat; test: concentration in liver after dosing; conditions: 144 h; dosed: Tamoxifen citrate; 100 ug/mL; oral; Female; F344; remark: listed apart in the source
[43] = test system: Rat; test: concentration in liver after dosing; conditions: 144 h; dosed: Tamoxifen citrate; 300 ug/mL; oral; Female; F344; remark: listed apart in the source
[44] = test system: Rat; test: concentration in adipose after dosing; conditions: 72 h; dosed: Tamoxifen; 300 ug/mL; oral; Female; F344; remark: listed apart in the source
[45] = test system: Rat; test: concentration in adipose after dosing; conditions: 144 h; dosed: Tamoxifen; 300 ug/mL; oral; Female; F344; remark: listed apart in the source
[46] = test system: Rat; test: concentration in adipose after dosing; conditions: oral, Female, F344
[47] = test system: Rat; test: concentration in liver after dosing; conditions: 144 h; dosed: Tamoxifen citrate; 300 ug/mL; oral; Female; F344; remark: listed apart in the source
[48] = test system: Rat; test: concentration in liver after dosing; conditions: 144 h; dosed: Tamoxifen; 300 ug/mL; oral; Female; F344; remark: listed apart in the source
[49] = test system: Rat; test: concentration in plasma after dosing; conditions: dosed: Tamoxifen citrate, 300 ug/mL, oral, Female, F344; remark: listed apart in the source
[50] = test system: Rat; test: concentration in adipose after dosing; conditions: 144 h; dosed: Tamoxifen; 300 ug/mL; oral; Female; F344; remark: listed apart in the source
[51] = test system: Rat; test: concentration in adipose after dosing; conditions: 144 h; dosed: Tamoxifen citrate; 100 ug/mL; oral; Female; F344
[52] = test system: Rat; test: concentration in liver after dosing; conditions: 72 h; dosed: Tamoxifen citrate; 300 ug/mL; oral; Female; F344; remark: listed apart in the source
[53] = test system: Rat; test: concentration in adipose after dosing; conditions: 144 h; dosed: Tamoxifen citrate; 300 ug/mL; oral; Female; F344; remark: listed apart in the source

FC(F)(F)C(Cl)Br (stereo unspecified) [halothane]
concentration in blood [ng/mL]
Conditions	0.5 h	1 h	2 h	3 h	4 h
[1]	1300	–	3220	3020	2520
[2]	3130	4930	5210	5410	7710
[3]	1420	2310	2600	3360	2720

[4], dosed: halothane
Conditions	concentration in blood [ng/mL]
0.5 h	623
1 h	2040
2 h	2110
3 h	2720
4 h	2190

FC(F)OC(Cl)C(F)(F)F (stereo unspecified) [isoflurane]
concentration in blood [ng/mL]
Conditions	[5]	[6]	[7]	[8]	[9]
0.5 h	–	418	1120	510	19.6
1 h	–	1010	2500	699	–
2 h	1120	–	3610	1610	1730
3 h	1520	1610	3220	1720	2030
4 h	1210	516	2520	915	824

[4], dosed: isoflurane
Conditions	concentration in blood
0.5 h	614 ng/mL
1 h	810 ng/mL and 1520 ng/mL
2 h	1610 ng/mL and 1420 ng/mL
3 h	1520 ng/mL
4 h	706 ng/mL

CC/C(=C(\c1ccccc1)c1ccc(OCCN(C)C)cc1)c1ccccc1 [Tamoxifen]
Conditions	concentration in adipose [ng/mL]	concentration in liver [ng/g]
[10]	31.2	–
[11]	–	37.2
[12]	44.5	–
[13]	–	58.4
[14]	–	25.3
[16]	–	25.3
[17]	14.8	–
[19]	–	13
[20]	151	–
[22]	–	58.4
[23]	31.2	–
[24]	–	22.8
[25]	–	30.5
[28]	30.4	–
[30]	55.7	–
[31]	–	30.5
[32]	30.4	–
[33]	44.5	–
[34]	–	16.3
[35]	–	21.1
[36]	5.58	–
[37]	27.4	–
[38]	40.1	–
[39]	–	37.2
[41]	–	5.85
[42]	–	13.9
[43]	–	22.8
[44]	27.4	–
[45]	55.7	–
[47]	–	239
[48]	–	239
[50]	151	–
[51]	10.4	–
[52]	–	21.1
[53]	40.1	–

concentration in plasma [ng/mL]
Conditions	[15]	[21]	[27]	[29]	[40]	[49]
0.25 h	11.9	11.9	15.4	15.4	21.9	21.9
0.5 h	8.96	8.96	12.2	12.2	10.2	10.2
1 h	7.35	7.35	9.33	9.33	–	–
2 h	5.81	5.81	8.41	8.41	6.23	6.23
4 h	–	–	4.44	4.44	4.51	4.51
12 h	–	–	–	–	2.66	2.66

Conditions	concentration in adipose, [46] [ng/mL]	concentration in liver, [18] [ng/g]
72 h, dosed: Tamoxifen citrate, 100 ug/mL	7.52	7.61
72 h, dosed: Tamoxifen citrate, 300 ug/mL	33.6	39.5
72 h, dosed: Tamoxifen, 300 ug/mL	33.6	39.5
144 h, dosed: Tamoxifen citrate, 100 ug/mL	9.5	13.4
144 h, dosed: Tamoxifen citrate, 300 ug/mL	31.5	48.3
144 h, dosed: Tamoxifen, 300 ug/mL	31.5	48.3

concentration in plasma [ng/mL], [26]
Conditions	0 h	0.25 h	0.5 h	1 h	2 h	4 h	8 h	16 h
dosed: Tamoxifen	2.13	3.18	2.95	2.9	4.38	4.12	4.6	2.42
dosed: Tamoxifen citrate	2.13	3.18	2.95	2.9	4.38	4.12	4.6	2.42
